Test results taken from ChEMBL document CHEMBL1201862, “PubChem BioAssay data set” (2004).
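48-hour exposure; five concentrations; linearly interpolated endpoints. Here, GI50 denotes the concentration required for 50% inhibition of growth.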 Active and inactive are the calls of the source. Cut-off read from the data, not from the text of the source: active = GI50 up to about 1.1 µM and inactive = higher.

Legend:
Experiment in all cases: NCI-60 cell line screen, 48 h
[1] = test system: MCF7
[2] = test system: M14
[3] = test system: LOX IMVI
[4] = test system: MDA-MB-435
[5] = test system: COLO 205
[6] = test system: SK-OV-3
[7] = test system: RXF 393
[8] = test system: K562
[9] = test system: T47D
[10] = test system: BT-549
[11] = test system: UO-31
[12] = test system: HL-60
[13] = test system: Hs-578T
[14] = test system: OVCAR-3
[15] = test system: MDA-N
[16] = test system: HCC 2998
[17] = test system: NCI-H226
[18] = test system: OVCAR-4
[19] = test system: MDA-MB-231
[20] = test system: MOLT-4

Compound	GI50 [1]	GI50 [2]	GI50 [3]	GI50 [4]	GI50 [5]	GI50 [6]	GI50 [7]	GI50 [8]	GI50 [9]	GI50 [10]	GI50 [11]	GI50 [12]	GI50 [13]	GI50 [14]	GI50 [15]	GI50 [16]	GI50 [17]	GI50 [18]	GI50 [19]	GI50 [20]
Nc1nc(SCc2ccccc2Cl)cc(C(=O)O)n1	> 100 µM (inactive)	> 100 µM (inactive)	44.4 µM (inactive)	73.1 µM (inactive)	39.4 µM (inactive)	> 100 µM (inactive)	> 100 µM (inactive)	46.5 µM (inactive)	> 100 µM (inactive)	97.9 µM (inactive)	67 µM (inactive)	64.1 µM (inactive)	49.1 µM (inactive)	28.6 µM (inactive)	96.4 µM (inactive)	59.2 µM (inactive)	49.1 µM (inactive)	60 µM (inactive)	> 100 µM (inactive)	
COC(=O)c1ccc2c(c1)sc1nc(-c3ccc(OC)cc3)cn12	66.2 µM (inactive)	> 100 µM (inactive)	> 100 µM (inactive)	42.8 µM (inactive)	31.9 µM (inactive)	> 100 µM (inactive)	69.8 µM (inactive)	38.2 µM (inactive)	35.2 µM (inactive)	43.7 µM (inactive)	> 100 µM (inactive)	25.1 µM (inactive)	37.3 µM (inactive)	> 100 µM (inactive)	78.9 µM (inactive)	> 100 µM (inactive)	> 100 µM (inactive)	> 100 µM (inactive)	> 100 µM (inactive)	> 100 µM (inactive)
CC1CC[C@@]2(OC1)O[C@H]1C[C@H]3[C@@H]4CC[C@H]5C[C@@H](OC6OC(CO)C(OC7OC(CO)C(OC8OC(CO)C(O)C(OC9OC(C)C(OC%10OC(C)C(O)C(O)C%10O)C(O)C9O)C8OC8OCC(O)C(O)C8O)C(O)C7O)C(O)C6O)CC[C@]5(C)[C@H]4CC(=O)[C@]3(C)[C@H]1[C@@H]2C (some centres undefined)	17.7 µM (inactive)	20.8 µM (inactive)	23.8 µM (inactive)	18.7 µM (inactive)	16.5 µM (inactive)	24.1 µM (inactive)	16.9 µM (inactive)	16.7 µM (inactive)	19.3 µM (inactive)	20.9 µM (inactive)	19.2 µM (inactive)	12.9 µM (inactive)	24.2 µM (inactive)	22.6 µM (inactive)	20 µM (inactive)	18.7 µM (inactive)	18.8 µM (inactive)	16.1 µM (inactive)	16.1 µM (inactive)	18.1 µM (inactive)
COCc1nc(C#N)c(N)o1	> 10 µM (inactive)	> 10 µM (inactive)	> 10 µM (inactive)	> 10 µM (inactive)	> 10 µM (inactive)	> 10 µM (inactive)	> 10 µM (inactive)	> 10 µM (inactive)	> 10 µM (inactive)	> 10 µM (inactive)	> 10 µM (inactive)	> 10 µM (inactive)	> 10 µM (inactive)		> 10 µM (inactive)	> 10 µM (inactive)	> 10 µM (inactive)	> 10 µM (inactive)	> 10 µM (inactive)	> 10 µM (inactive)
N=C(N)NS(=O)(=O)c1ccc(NNC(=O)c2cccc3c(O)c4ccccc4nc23)cc1	16.3 µM (inactive)	17.4 µM (inactive)	24.5 µM (inactive)	25.5 µM (inactive)	24.7 µM (inactive)	29.6 µM (inactive)	38.1 µM (inactive)	24 µM (inactive)	17.7 µM (inactive)	21.7 µM (inactive)	18.9 µM (inactive)	27 µM (inactive)	63.2 µM (inactive)	24.1 µM (inactive)	25.2 µM (inactive)	18.1 µM (inactive)	25.5 µM (inactive)	29.5 µM (inactive)	37.6 µM (inactive)	30.2 µM (inactive)
COC(=O)[C@@H]1C[C@H]2OC(=O)CC[C@]2(C)O[C@H]1[C@H]1O[C@@](C)(O)CCC[C@H]1C	> 50 µM (inactive)	> 50 µM (inactive)	6.07 µM (inactive)	> 50 µM (inactive)	> 50 µM (inactive)	> 50 µM (inactive)	> 50 µM (inactive)	> 50 µM (inactive)	> 50 µM (inactive)	> 50 µM (inactive)	> 50 µM (inactive)	8.95 µM (inactive)	> 50 µM (inactive)	> 50 µM (inactive)	> 50 µM (inactive)	> 50 µM (inactive)	> 50 µM (inactive)	> 50 µM (inactive)	> 50 µM (inactive)	> 50 µM (inactive)
COc1ccc(Oc2nc3cc(C(F)(F)F)ccc3nc2C(C)C)cc1	18.8 µM (inactive)	31.6 µM (inactive)	15.3 µM (inactive)	30.1 µM (inactive)	16 µM (inactive)	38.7 µM (inactive)	15.8 µM (inactive)	24.6 µM (inactive)	15.1 µM (inactive)	22.4 µM (inactive)	32.6 µM (inactive)	18.7 µM (inactive)	31.6 µM (inactive)	29.6 µM (inactive)	35.4 µM (inactive)	20.1 µM (inactive)	21 µM (inactive)	34.7 µM (inactive)	24.7 µM (inactive)	15.7 µM (inactive)
C1CCNCC1.O=C1NC(=S)N/C1=C/c1ccccc1O	> 100 µM (inactive)	> 100 µM (inactive)	> 100 µM (inactive)	> 100 µM (inactive)	> 100 µM (inactive)	> 100 µM (inactive)	> 100 µM (inactive)		56.2 µM (inactive)	> 100 µM (inactive)	95.3 µM (inactive)	> 100 µM (inactive)	26.4 µM (inactive)	> 100 µM (inactive)	> 100 µM (inactive)	23.5 µM (inactive)	> 100 µM (inactive)	> 100 µM (inactive)	> 100 µM (inactive)	73.1 µM (inactive)
CCOC(=O)c1sc2nc(SC)nc3c2c1NCN3c1ccc(F)c(F)c1	36 µM (inactive)	31.4 µM (inactive)	6.59 µM (inactive)	6.81 µM (inactive)	> 100 µM (inactive)	19.2 µM (inactive)	6.43 µM (inactive)	> 100 µM (inactive)	29.4 µM (inactive)	6.79 µM (inactive)	22.1 µM (inactive)	> 100 µM (inactive)	4.28 µM (inactive)	5.57 µM (inactive)	18.3 µM (inactive)	> 36.1 µM (inactive)	29.9 µM (inactive)	4.76 µM (inactive)	13 µM (inactive)	> 55.2 µM (inactive)
CC1(c2ccccc2)CCN(C2CC2)CO1 (centres undefined)	16.2 µM (inactive)	16.9 µM (inactive)	18 µM (inactive)	49.9 µM (inactive)	21.6 µM (inactive)	> 100 µM (inactive)	26.9 µM (inactive)	15.3 µM (inactive)	17.3 µM (inactive)	18.3 µM (inactive)	18.5 µM (inactive)	45.2 µM (inactive)	19.4 µM (inactive)	17.7 µM (inactive)	15.1 µM (inactive)	17.1 µM (inactive)	> 100 µM (inactive)	18.8 µM (inactive)	19.3 µM (inactive)	18.3 µM (inactive)
COC(=O)C1OC(O[C@H]2CC[C@]3(C)[C@H]4CC=C5[C@@H]6CC(C)(C)CC[C@]6(C(=O)OC6OCC(O)C(O)C6OC6OC(C)C(OC7OCC(OC8OCC(O)C(O)C8O)C(O)C7O)C(O)C6O)[C@H](O)C[C@@]5(C)[C@]4(C)CC[C@H]3C2(C)C)C(O)C(O)C1O (some centres undefined)	0.69 µM (active)	1.85 µM (inactive)	8.53 µM (inactive)	1.95 µM (inactive)	1.66 µM (inactive)	14.9 µM (inactive)	11.4 µM (inactive)		1.43 µM (inactive)	2.04 µM (inactive)	1.75 µM (inactive)	3.21 µM (inactive)	6.15 µM (inactive)	6.82 µM (inactive)	1.78 µM (inactive)	1.63 µM (inactive)	1.52 µM (inactive)	9.31 µM (inactive)	2.71 µM (inactive)	15.7 µM (inactive)
Fc1ccc2c(c1)nc1n2C(c2c(F)cccc2F)SC1 (centres undefined)	42.1 µM (inactive)	49.8 µM (inactive)	45.7 µM (inactive)	49.9 µM (inactive)	80.2 µM (inactive)	59.2 µM (inactive)	62.2 µM (inactive)		31 µM (inactive)	42.5 µM (inactive)	25 µM (inactive)	20.7 µM (inactive)	47 µM (inactive)	28.6 µM (inactive)	28.2 µM (inactive)	71.6 µM (inactive)	> 100 µM (inactive)	48.2 µM (inactive)	91.8 µM (inactive)	25.8 µM (inactive)
CC1=NN=C(N)NC1=CC(Sc1ccc(Cl)cc1)c1c(O)ccc2ccccc12 (centres undefined)	20 µM (inactive)	11.9 µM (inactive)	19.3 µM (inactive)	19.6 µM (inactive)	16.9 µM (inactive)	18.3 µM (inactive)	4.75 µM (inactive)	38.5 µM (inactive)	8.51 µM (inactive)	13.6 µM (inactive)	6.07 µM (inactive)	> 10 µM (inactive)	5.25 µM (inactive)		28.2 µM (inactive)	16.7 µM (inactive)	4.55 µM (inactive)	16.8 µM (inactive)	21.1 µM (inactive)	21.1 µM (inactive)
CCCCCCCCCCCCCC/C(C(=O)O)=C(\C)C(=O)O	> 100 µM (inactive)	> 100 µM (inactive)	> 100 µM (inactive)	> 100 µM (inactive)	> 100 µM (inactive)	> 100 µM (inactive)	> 100 µM (inactive)	> 100 µM (inactive)	> 100 µM (inactive)	> 100 µM (inactive)	> 100 µM (inactive)	58.3 µM (inactive)	> 100 µM (inactive)	> 100 µM (inactive)	> 100 µM (inactive)	> 100 µM (inactive)	> 100 µM (inactive)	> 100 µM (inactive)	> 100 µM (inactive)	> 100 µM (inactive)
